Values quoted from earlier work in US10328101B2, “Inactivation of papillomavirus” (priority 2001, dated 2019).

System: bovine papillomavirus
Conditions: iodine in the form of povidone-iodine; low concentrations (title of reference)

povidone-iodine
treating viruses including bovine papillomavirus: effective
